Measurements reported in patent publication US20240287089A1, “Preparation and Uses of 7-Azaindenoisoquinolines” (Purdue Research Foundation, priority 0001, published 2024).
Where two headings read alike, the source gives them in different places.

Assays:
NCI-60 cancer cell lines = test: NCI-60 cytotoxicity assay, MGM; type: cell-based; settings: Homo sapiens; read-out: MGM (average GI50 across NCI-60 panel)
Protocol: (§1) The antiproliferative activities of the indenoisquinoline compounds are determined in the NCI-60 cancer cell lines of the National Cancer Institute Developmental Therapeutics Program (NCI-DTP). […] Cancer cells are incubated with the test compounds at five concentrations ranging from 100 μM to 10 nM for 48 h. After the treated cancer cells are stained with sulforhodamine B dye, the percentage growth is plotted as a function of the common logarithm of the tested compound concentration. […] The approximate average of GI50 values across the entire panel of NCI-60 cancer cell lines for each compound is recorded as the MGM value.
(§2) NCI-60 Cytotoxicity Assay. Compounds were submitted to the National Cancer Institute Developmental Therapeutic Program to determine their growth-inhibitory potentials in NCI-60 cell lines. All compounds satisfied the pre-screening proceeded into the 5-dose cell viability assay, in which cells were treated for 48 h at 5 dosages ranging from 100 μM to 10 nM.

SF-539 (CNS) = test: NCI-60 cytotoxicity assay; type: cell-based; settings: Homo sapiens; CNS SF-539, 48 h; read-out: Cytotoxicity GI50
Protocol: as §1, §2

MCF7 (Breast) = test: NCI-60 cytotoxicity assay; type: cell-based, human; settings: Homo sapiens; Breast MCF7, 48 h; read-out: Cytotoxicity GI50
Protocol: as §1, §2

OVCAR-3 (Ovarian) = test: NCI-60 cytotoxicity assay; type: cell-based, human; settings: Homo sapiens; Ovarian OVCAR-3, 48 h; read-out: Cytotoxicity GI50
Protocol: as §1, §2

HOP-62 (Lung) = test: NCI-60 cytotoxicity assay; type: cell-based, human; settings: Homo sapiens; Lung HOP-62, 48 h; read-out: Cytotoxicity GI50
Protocol: as §1, §2

HCT-116 (Colon) = test: NCI-60 cytotoxicity assay; type: cell-based, human; settings: Homo sapiens; Colon HCT-116, 48 h; read-out: Cytotoxicity GI50
Protocol: as §1, §2

UACC-62 (Melanoma) = test: NCI-60 cytotoxicity assay; type: cell-based, human; settings: Homo sapiens; Melanoma UACC-62, 48 h; read-out: Cytotoxicity GI50
Protocol: as §1, §2

DU-145 (Prostate) = test: NCI-60 cytotoxicity assay; type: cell-based, human; settings: Homo sapiens; Prostate DU-145, 48 h; read-out: Cytotoxicity GI50
Protocol: as §1, §2

SN12C (Renal) = test: NCI-60 cytotoxicity assay; type: cell-based, human; settings: Homo sapiens; Renal SN12C, 48 h; read-out: Cytotoxicity GI50
Protocol: as §1, §2

Caco-2 cells = test: Caco-2 permeability; type: in vitro ADME; settings: for Papp (A→B) / Papp (B→A): Caco-2, 5 μM, 2 h
Protocol: Caco-2 Permeability Studies. The Caco-2 plate was removed from the incubator and washed twice with pre-warmed HBSS (10 mM HEPES, pH 7.4), and then incubated at 37° C. for 30 min. The stock solutions of controls compounds were diluted in DMSO to get 1 mM solutions and then diluted with HBSS (10 mM HEPES, pH 7.4) to get 5 μM working solutions. The stock solutions of the test compounds were diluted in DMSO to get 1 mM solutions and then diluted with HBSS (10 mM HEPES, pH 7.4) to get 5 μM working solutions. The final concentration of DMSO in the incubation system was 0.5%. To determine the rate of drug transport in the apical to basolateral direction, 75 μL of 5 μM working solutions of test compounds was added to the Transwell insert (apical compartment) and the wells in the receiver plate (basolateral compartment) were filled with 235 μL of HBSS (10 mM HEPES, pH 7.4). To determine the rate of drug transport in the basolateral to apical direction, 235 μL of 5 μM working solutions of test compounds were to the receiver plate wells (basolateral compartment) and then the Transwell inserts (apical compartment) were filled with 75 μL of HBSS (10 mM HEPES, pH 7.4). Time 0 samples were prepared by transferring 50 μL of 5 μM working solution to wells of the 96-deepwell plate, followed by the addition of 200 μL cold methanol containing appropriate internal standards (IS). The plates were incubated at 37° C. for 2 h. […] An aliquot of 100 μL of the supernatant was mixed with an appropriate volume of ultra-pure water before LC-MS/MS analysis. To determine the Lucifer Yellow leakage after 2 h transport period, stock solution of Lucifer yellow was prepared in ultra-pure water and diluted with HBSS (10 mM HEPES, pH 7.4) to reach the final concentration of 100 μM and then 100 μL of the Lucifer yellow solution was added to each Transwell insert (apical compartment), followed by filling the wells in the receiver plate (basolateral compartment) with 300 μL of HBSS (10 mM HEPES, pH 7.4). The plates were incubated at 37° C. for 30 minutes. Samples (80 μL) were removed directly from the apical and basolateral wells (using the basolateral access holes) and transferred to wells of new 96 wells plates.

[1] = mouse, 6 h, 1 μM; for % Bound: plasma
Protocol: (§4) Analysis of Plasma Protein Binding and Stability in Human and Mouse Blood Plasma by Equilibrium Dialysis. Frozen plasma (stored at −80° C.) was thawed immediately in a 37° C. water bath. The working solutions of test compound and control compound were prepared in DMSO at 200 μM concentration, and the working solutions were spiked into plasma. The final concentration of compound was 1 μM. The final concentration of DMSO was 0.5%. Ketoconazole was used as positive control in the assay. The dialysis membranes were soaked in ultrapure water for 60 min to separate strips, then in 20% ethanol for 20 min, and then finally in dialysis buffer for 20 min. For equilibrium dialysis, each cell contained plasma sample (150 μL) and was dialyzed against an equal volume of dialysis buffer (PBS). The assay was performed in duplicate. The dialysis plate was sealed and incubated at 37° C. with 5% CO2 at 100 rpm for 6 h. At the end of incubation, samples (50 μL) from both buffer and plasma chambers were transferred to wells of a 96-well plate. Plasma (50 μL) was added to each buffer sample and an equal volume of PBS was added to the collected plasma sample. Cold acetonitrile (400 μL) containing internal standards (IS, 100 nM alprazolam, 200 nM labetalol, 200 nM imipramine and 2 μM ketoprofen) was added to precipitate protein and release compounds. Samples were vortexed for 2 min and centrifuged for 30 min at 3,220 g. An aliquot (100 μL) of the supernatant was diluted with ultra-pure H2O (100 μL), and the mixture was used for LC-MS/MS analysis. For stability determination in plasma, a spiked plasma sample (50 μL) was transferred to a new plate and incubated at 37° C., 5% CO2 for 0 and 6 h. At designated time points, PBS (50 μL) was added and mixed thoroughly, followed by the addition of room temperature quench solution [400 μL of acetonitrile containing internal standards (IS, 100 nM alprazolam, 200 nM labetalol, 200 nM imipramine and 2 μM ketoprofen)] to precipitate protein and release compounds. Samples were vortexed for 2 min and centrifuged for 30 min at 3,220 g. An aliquot (400 μL) of the supernatant was diluted by ultra-pure H2O, and the mixture was used for LC-MS/MS analysis. The concentrations of test compounds in the buffer and plasma chambers were determined from peak area ratios.

in vivo [2] = settings: male, CD1, mouse, iv, 20 mg/kg
Protocol: Brain Penetration Studies. […] The concentrations were determined by LC-MS/MS with direct measurement of the plasma samples. The brain tissue was homogenized with water using a 3:1 ratio of water (mL) to brain (g) before determination of the concentrations (ng/mL) in the brain homogenates, and the homogenate values then were multiplied by a factor of 4 to obtain the brain concentrations (ng/g).

[3] = Maximum tolerated dose determination in NOD SCID mice; type: in vivo; settings: QD x 5; for Body Weight %: 7 days after first dose; for Maximum tolerated dose (MTD): NOD SCID mice, IV, body weight % ≥80%
Protocol: Maximum Tolerated Dose Determinations. […]. […] Experiments involving 100 mg/kg doses of all three drugs were terminated after one day because of toxicity, while the study involving 50 mg/kg dose of G105 was also halted after one day (FIG. 12). Similarly, the investigation with a 40 mg/kg dose of G105 was discontinued after two days (FIG. 13).

[4] = human, 6 h, 1 μM; for % Bound: plasma
Protocol: as §4

[5] = human, 1 μM
Protocol: as §4

c-Myc = test: Western blot of RS4;11 tumor xenograft tissue; type: in vivo, human
Source text: (§3) In several cases, the levels of c-Myc were more greatly depressed at the lower dose level. For examples, see the 9-hour data for G104 in Tables 17 and 18 and the 6-hour data in Table 19. […] Overall, there are many unexpected and unexplained aspects of the data in Tables 17-19, which are highly variable and also highly dependent on cell type. In particular, drug-induced increases in c-Myc expression relative to control and the larger changes in c-Myc expression seen at lower vs. higher doses are counterintuitive and unexplained.

γ-H2AX [6] = test: Western blot of MOLT-4 tumor xenograft tissue; type: in vivo, human
Source text: as §3

in vivo [7] = type: in vivo
γ-H2AX [8] = test: Western blot of RS4;11 tumor xenograft tissue; type: in vivo, human

Compound: COc1cc2c3c(n(CCCN4CCOCC4)c(=O)c2cc1OC)-c1nc2c(cc1C3=O)OCO2 [G101, 2,3-Dimethoxy-6-(3-morpholinopropyl)-5H-[1,3]dioxolo[4″,5″:5′,6′]pyrido[3′,2′:4,5]cyclopenta[1,2-c]isoquinoline-5,12(6H)-dione]
- GI50 (NCI-60 cancer cell lines): 930 nM
- GI50 (SF-539 (CNS)): 230 nM
- GI50 (MCF7 (Breast)): 39 nM
- GI50 (OVCAR-3 (Ovarian)): 4610 nM
- GI50 (HOP-62 (Lung)): 51 nM
- GI50 (HCT-116 (Colon)): 460 nM
- GI50 (UACC-62 (Melanoma)): 150 nM
- GI50 (DU-145 (Prostate)): 420 nM
- GI50 (SN12C (Renal)): 2720 nM

Compound: COc1cc2c3c(n(CCCn4ccnc4)c(=O)c2cc1OC)-c1nc2c(cc1C3=O)OCO2 [G102, 6-(3-(1H-Imidazol-1-yl)propyl)-2,3-dimethoxy-5H-[1,3]dioxolo[4″,5″:5′,6′]pyrido[3′,2′:4,5]cyclopenta[1,2-c]isoquinoline-5,12(6H)-dione]
- GI50 (NCI-60 cancer cell lines): 780 nM
- GI50 (SF-539 (CNS)): 39 nM
- GI50 (MCF7 (Breast)): 26 nM
- GI50 (OVCAR-3 (Ovarian)): 33400 nM
- GI50 (HOP-62 (Lung)): 29 nM
- GI50 (HCT-116 (Colon)): 310 nM
- GI50 (UACC-62 (Melanoma)): 42 nM
- GI50 (DU-145 (Prostate)): 58 nM
- GI50 (SN12C (Renal)): 440 nM

Compound: COc1cc2c3c(n(CCCNC(C)C)c(=O)c2cc1OC)-c1nc2c(cc1C3=O)OCO2 [G103, 6-(3-(Isopropylamino)propyl)-2,3-dimethoxy-5H-[1,3]dioxolo [4″,5″:5′,6′]pyrido[3′,2′:4,5]cyclopenta[1,2-c]isoquinoline-5,12(6H)-dione]
- GI50 (NCI-60 cancer cell lines): 2190 nM
- GI50 (SF-539 (CNS)): 1520 nM
- Recovery (%)AP-BL (Caco-2 cells; Caco-2): 36.17%
- Recovery (%)BL-AP (Caco-2 cells; Caco-2): 75.54%
- Papp (A→B) (Caco-2 cells): 1.55 10^−6, cm/s
- Papp (B→A) (Caco-2 cells): 8.95 10^−6, cm/s
- % Recovery [1]: 88.02%
- % Bound [1]: 84.11%
- Cmax (in vivo [2]): 3810 ng/g
- GI50 (MCF7 (Breast)): 100 nM
- GI50 (OVCAR-3 (Ovarian)): 14300 nM
- GI50 (HOP-62 (Lung)): 470 nM
- GI50 (HCT-116 (Colon)): 1040 nM
- GI50 (UACC-62 (Melanoma)): 9840 nM
- GI50 (DU-145 (Prostate)): 1050 nM
- GI50 (SN12C (Renal)): 10600 nM
- Body Weight % ([3]; 5 mg/Kg IV): 92.4%
- Body Weight % ([3]; 10 mg/Kg IV): 93%
- Body Weight % ([3]; 15 mg/Kg IV): 93.9%
- Body Weight % ([3]; 20 mg/Kg IV): 86%
- Body Weight % ([3]; 30 mg/Kg IV): 85.1%
- Body Weight % ([3]; 40 mg/Kg IV): 85.3%
- Body Weight % ([3]; 50 mg/Kg IV): 86.6%
- Body Weight % ([3]; 60 mg/Kg IV): 74%
- Maximum tolerated dose (MTD) [3]: 50 mg/kg
- % Recovery [4]: 88.05%
- % Bound [4]: 82.60%
- % Stability at 6 hrs [5]: 94.96%

Compound: CCNCCCn1c2c(c3cc(OC)c(OC)cc3c1=O)C(=O)c1cc3c(nc1-2)OCO3 [G104, 6-(3-(Ethylamino)propyl)-2,3-dimethoxy-5H-[1,3]dioxolo[4″,5″:5′,6′]pyrido [3′,2′:4,5]cyclopenta[1,2-c]isoquinoline-5,12(6H)-dione]
- c-Myc/GAPDH, % Relative to Vehicle (c-Myc; RS4;11, IV 15 mg/kg, 3 h): 92.20 ± 2.11%
- c-Myc/GAPDH, % Relative to Vehicle (c-Myc; RS4;11, IV 15 mg/kg, 9 h): 92.59 ± 13.64%
- c-Myc/GAPDH, % Relative to Vehicle (c-Myc; RS4;11, IV 30 mg/kg, 3 h): 111.60 ± 8.19%
- c-Myc/GAPDH, % Relative to Vehicle (c-Myc; RS4;11, IV 30 mg/kg, 9 h): 100.31 ± 2.71%
- GI50 (NCI-60 cancer cell lines): 1450 nM
- GI50 (SF-539 (CNS)): 680 nM
- Efflux Ratio (Caco-2 cells; Caco-2): 9.51
- Recovery (%)AP-BL (Caco-2 cells; Caco-2): 54.60%
- Recovery (%)BL-AP (Caco-2 cells; Caco-2): 81.64%
- Papp (A→B) (Caco-2 cells): 1.69 10^−6, cm/s
- Papp (B→A) (Caco-2 cells): 16.04 10^−6, cm/s
- % Recovery [1]: 80.60%
- % Bound [1]: 83.44%
- γ-H2AX/GAPDH, % Relative to Vehicle (γ-H2AX [6]; MOLT-4, IV 15 mg/kg, 3 h): 71.86 ± 8.95%
- γ-H2AX/GAPDH, % Relative to Vehicle (γ-H2AX [6]; MOLT-4, IV 15 mg/kg, 9 h): 138.12 ± 23.51%
- γ-H2AX/GAPDH, % Relative to Vehicle (γ-H2AX [6]; MOLT-4, IV 30 mg/kg, 3 h): 47.29 ± 12.20%
- γ-H2AX/GAPDH, % Relative to Vehicle (γ-H2AX [6]; MOLT-4, IV 30 mg/kg, 9 h): 168.88 ± 39.58%
- Cmax (in vivo [2]): 1610 ng/g
- Vd (in vivo [2]): 58.4 L/kg
- half-life (in vivo [2]): 7.06 h
- GI50 (MCF7 (Breast)): 75 nM
- GI50 (OVCAR-3 (Ovarian)): 11300 nM
- GI50 (HOP-62 (Lung)): 200 nM
- GI50 (HCT-116 (Colon)): 1180 nM
- GI50 (UACC-62 (Melanoma)): 1810 nM
- GI50 (DU-145 (Prostate)): 550 nM
- GI50 (SN12C (Renal)): 4610 nM
- Kp at 3 h (in vivo [7]; NOD SCID, mouse, tumor and plasma, RS4;11, 3 h, IV 15 mg/kg, read-out: Mean Tumor/Plasma Ratio): 76.1 ± 18.9
- Mean Tumor/Plasma Ratio (in vivo [7]; RS4;11, 3 h, IV 30 mg/kg): 77.3 ± 11.8
- Mean Tumor/Plasma Ratio (in vivo [7]; RS4;11, 9 h, IV 15 mg/kg): 130 ± 32
- Mean Tumor/Plasma Ratio (in vivo [7]; RS4;11, 9 h, IV 30 mg/kg): 112 ± 16
- Body Weight % ([3]; 5 mg/Kg IV): 92.4%
- Body Weight % ([3]; 10 mg/Kg IV): 95.2%
- Body Weight % ([3]; 15 mg/Kg IV): 87%
- Body Weight % ([3]; 20 mg/Kg IV): 83.3%
- Body Weight % ([3]; 30 mg/Kg IV): 88.8%
- Body Weight % ([3]; 40 mg/Kg IV): 78.8%
- Maximum tolerated dose (MTD) [3]: 30 mg/kg
- % Recovery [4]: 83.58%
- % Bound [4]: 81.21%
- % Stability at 6 hrs [5]: 86.15%
- γ-H2AX/GAPDH, % Relative to Vehicle (γ-H2AX [8]; RS4;11, IV 15 mg/kg, 3 h): 133.08 ± 38.59%
- γ-H2AX/GAPDH, % Relative to Vehicle (γ-H2AX [8]; RS4;11, IV 15 mg/kg, 9 h): 142.66 ± 23.92%
- γ-H2AX/GAPDH, % Relative to Vehicle (γ-H2AX [8]; RS4;11, IV 30 mg/kg, 3 h): 150.28 ± 29.86%
- γ-H2AX/GAPDH, % Relative to Vehicle (γ-H2AX [8]; RS4;11, IV 30 mg/kg, 9 h): 220.37 ± 47.79%
